Test results: patent publication US12103925B2, “Crystal and amorphous form of tolebrutinib, preparation method therefor, and use thereof” (HANGZHOU SOLIPHARMA CO., LTD., priority 2021, dated 2024)
In brackets after ≈: the same amount, converted by molar mass. Several values for one entry are separate records, joined by “and”; a condition that tells them apart may be missing. Equal values may be shown once. Entries after “also recorded” stand apart in the source; their conditions may differ.

Columns and labels:
Type in all cases: physicochemical
[1] = Solid form before and after the tableting process (XRPD); conditions: XRPD comparison
Text: (§1) Following the formulation in Table 6, API, lactose hydrate, polyvinylpyrrolidone, hydroxypropyl cellulose, microcrystalline cellulose and magnesium stearate were mixed and compressed to obtain a tablet core. Subsequently, the tablet cores are coated with a solution/suspension for film coating, resulting in the preparation of the tablets.

[2] = Stability of the solid form in tablets at 25° C./60% RH (XRPD); conditions: XRPD before and after storage
Protocol: as §1
The prepared amorphous tablets, Form 1 tablets and Form 2 tablets were individually placed at 25° C./60% RH for 14 days. XRPD tests were performed before and after storage.

[3] = Compressibility study (tablet compression, hardness, tensile strength); conditions: for tensile strength: calculated, T=2H/πDL*9.8; for diameters / thicknesses: circular tablets, 7.5 mm punch; for diameters / thicknesses / hardness: mean main pressure 1.8 KN; for hardness: radial breaking force, tablet hardness tester
Protocol: The tablet compression was conducted using a Tianxiang rotary tablet press. A circular punch with a diameter of 7.5 mm (07.5 mm) was selected, a filling depth of 17.9 mm and a mean main pressure of 1.8 KN was used to form circular tablets. The tablets' radial breaking force (hardness, H) was measured using a tablet hardness tester. The tablets' diameter (D) and thickness (L) were measured using a vernier caliper. The tensile strength (T) of the powder was calculated using the formula T=2H/πDL*9.8.

[4] = Competitive slurry experiments
[5] = Dynamic moisture adsorption analysis (DVS), hygroscopicity
Protocol: In this application, dynamic moisture adsorption analysis (DVS) data and isothermal adsorption analysis data were obtained using a TA Instruments Q5000 TGA; parameters are as follows: temperature: 25° C.; relative humidity range: 0% RH-80% RH; dm/dt=0.001%/min; equilibration time: gas: N2; sample pan: platinum pan.

[6] = Stability under light and oxidation conditions; conditions: for time the form remains stable under light: light (25° C./4500 lx/closed); for chemical purity before and after storage: light and oxidation conditions, 14 days; for time the form remains stable under oxidation: oxidation (in an atmosphere of carbamide peroxide)
[7] = Stability study under long-term and accelerated conditions (XRPD and HPLC); conditions: for Purity after placing / sample after placing / chemical purity before and after storage: 10 months; for Purity after placing: HPLC; for sample after placing: XRPD; for time the solid form remains unchanged / stable: both long-term (25° C./60% RH/open) and accelerated (40° C./75% RH/open) conditions; for chemical purity before and after storage: long-term and accelerated conditions
Protocol: In this application, X-ray powder diffraction (XRPD) data were collected using a BrukerD8 Advance diffractometer; parameters are as follows: Cu radiation; wavelength: 1.54 Å; Current voltage: 40 KV, 40 mA; Scan range: 3˜40′2θ.
(§2) In this application, the HPLC parameters for chemical stability and solubility are as follows:
[…] Regular testing using XRPD and HPLC was performed.
(§3) […] Regular testing using XRPD and HPLC were performed.
as §3

[8] = Polarized light microscope (PLM) particle size; conditions: PLM image
Protocol: In this application, the polarized light microscope (PLM) images were collected using a XPV˜990E polarized light microscope; a small amount of powder sample was placed on a glass slide, a small amount of mineral oil was added dropwise to disperse the sample, a cover glass was placed on the slide, and the sample was placed on the slide. Observing and taking pictures on the stage.

[9] = Solubility study in pH 1.2 buffer solution and pH 1.2 SGF (HPLC); conditions: for Solubility, pH 1.2 SGF: pH 1.2 SGF (with pepsin)
Protocol: as §2
The amorphous form of tolebrutinib, Form 1 and Form 2 samples of the present application were studied using pH 1.2 buffer solution (preparation: 375.90 mg potassium chloride solid and 1709.47 mg concentrated hydrochloric acid (37%) were added to a 100 mL volumetric flask, 80 mL of pure water was added, adjusted the pH to 1.2 with hydrochloric acid or potassium hydroxide, q.s. to volume) and pH 1.2 SGF (preparation: In 765 μL of concentrated hydrochloric acid (37%) added about 80 mL of water, 1 g of pepsin, 200 mg chlorinated sodium, shook, diluted with water to 100 mL) to form a supersaturated solution, and the dissolved content of the sample in the saturated solution was determined by high performance liquid chromatography (HPLC) at a fixed time point.

[10] = pH 1.2 buffer and pH 1.2 SGF (medium simulating the physiological pH of the human stomach)
[11] = pH 1.2 buffer solution, 2 hours
[12] = listed as amorphous form of tolebrutinib
[13] = listed as amorphous tolebrutinib

| solid form before and after the tableting process [1] | tensile strength [3] [MPa] | diameters [3] [mm] | thicknesses [3] [mm] | hardness [3] [kg] | time the form remains stable under light [6] | chemical purity before and after storage [6] | time the form remains stable under oxidation [6] | Purity after placing ([7]; 25° C./60% RH/open) [%] | sample after placing ([7]; 25° C./60% RH/open) | Purity after placing ([7]; 40° C./75% RH/open) | sample after placing ([7]; 40° C./75% RH/open) | time the solid form remains unchanged / stable [7] [months] | particle size [8] [μm] | Solubility, pH 1.2 SGF ([9]; 2 hours) [mg/mL] | solubility, approximate level [9, 10] | Solubility, pH 1.2 buffer solution [9, 11] [mg/mL] | Structure (SMILES) | also measured |
| --- | --- | --- | --- | --- | --- | --- | --- | --- | --- | --- | --- | --- | --- | --- | --- | --- | --- | --- |
| remained unchanged | 1.7 | 7.51 | 4.18 | 8.31 | at least 14 days | basically unchanged | at least 14 days | 98.87 | Form 2 | 98.24% | Form 2 | 10 | ≤ 10 | 32.45 | approximately 20 mg/mL | 21.44 | C=CC(=O)N1CCC[C@@H](n2c(=O)n(-c3ccc(Oc4ccccc4)cc3)c3c(N)nccc32)C1 [Form 2, tolebrutinib] | time the solid form remains unchanged / stable in the formulation (tablets) ([2]; listed as Tolebrutinib Form 2): at least 14 days; thermodynamic stability [4]: thermodynamically stable form at temperatures of 30 °C and above; DVS weight gain ([5]; between 0% RH and 80% RH, listed as Tolebrutinib Form 2): 0.3%; DVS weight gain ([5]; between 0% RH and 80% RH, listed as sample 3-1): about 0.34%; time the solid form remains unchanged / stable ([7]; listed as tolebrutinib Form 2): at least 10 months; chemical purity before and after storage ([7]; listed as Tolebrutinib Form 2): essentially unchanged; chemical purity before and after storage ([7]; listed as tolebrutinib Form 2): basically unchanged |
| remained unchanged | 1.4 | 7.49 | 4.15 | 7.18 | – | – | – | – | – | 98.00% | Amorphous | – | – | 36.76 | – | – | C=CC(=O)N1CCC[C@@H](n2c(=O)n(-c3ccc(Oc4ccccc4)cc3)c3c(N)nccc32)C1 [Amorphous, tolebrutinib] | time the solid form remains unchanged / stable in the formulation (tablets) [2, 12]: 14 days; DVS weight gain ([5]; between 20% RH and 80% RH, 25° C., listed as amorphous form of tolebrutinib): about 1.9%; DVS weight gain ([5]; between 20% RH and 80% RH, 25° C., listed as sample 1-1): about 1.9%; time the form remains stable under light [6, 12]: 14 days; time the form remains stable under light [6, 13]: at least 14 days; chemical purity before and after storage [6, 12]: no essential change; chemical purity before and after storage [6, 13]: essentially unchanged; time the form remains stable under oxidation [6, 12]: 14 days; time the form remains stable under oxidation [6, 13]: at least 14 days; Purity after placing ([7]; 25° C./65% RH/open): 98.87%; sample after placing ([7]; 25° C./65% RH/open): Amorphous; Purity after placing ([7]; 40° C./75% RH/open, listed as amorphous form of tolebrutinib): 98.0%; time the solid form remains unchanged / stable [7, 12]: 10 months; time the solid form remains unchanged / stable [7, 13]: 10 months; chemical purity before and after storage [7, 12]: essentially unchanged; chemical purity before and after storage [7, 13]: essentially unchanged; solubility compared with the crystal forms [9]: surpassing that of Tolebrutinib Form 1 and Form 2; solubility ([9]; pH 1.2 buffer solution and pH 1.2 SGF, pH 1.2, simulated gastric fluid, thermodynamic from solid, pH 1.2 buffer and pH 1.2 SGF (medium simulating the physiological pH of the human stomach), read-out: solubility, approximate level): ~20 mg/mL (≈ 43.9 mM); solubility at 2 hours ([9]; pH 1.2 buffer solution, pH 1.2, simulated gastric fluid, thermodynamic from solid, 2 hours): 29.1 mg/mL (≈ 63.8 mM) |
| remained unchanged | 1.3 | 7.51 | 4.18 | 6.40 | at least 14 days | basically unchanged | at least 14 days | 99.77 | Form 1 | 99.5% and 99.54% | Form 1 | 10 | ≤ 10 | 18.28 | approximately 20 mg/mL | 21.19 | C=CC(=O)N1CCC[C@@H](n2c(=O)n(-c3ccc(Oc4ccccc4)cc3)c3c(N)nccc32)C1 [Form 1, tolebrutinib] | time the solid form remains unchanged / stable in the formulation (tablets) ([2]; listed as Tolebrutinib Form 1): at least 14 days; DVS weight gain ([5]; between 20% RH and 80% RH, 25° C., listed as sample 2-1): about 0.46%; time the solid form remains unchanged / stable ([7]; listed as Tolebrutinib Form 1): at least 10 months; chemical purity before and after storage ([7]; listed as Tolebrutinib Form 1): basically unchanged; also recorded: essentially unchanged; solubility, approximate level ([9]; pH 1.2 buffer and pH 1.2 SGF (medium simulating the physiological pH of the human stomach), listed as Tolebrutinib Form 1): around 20 mg/mL |
